# Reference: patent US20190307818A1, “NOVEL ANTIMICROBIAL COMPOSITIONS AND METHODS OF USE” (priority 2016, published 2019)
# Assays:
# LasR [1] = molecular target: T1, LasR (Pseudomonas aeruginosa, UniProt P25084); test: Two plasmid E. coli LasR reporter (luciferase); type: cell-based, P. aeruginosa; settings: for Percent Activity (LasR reporter): inhibitor at 100 μM, relative to wild-type (100%); for remaining activity at 100 µM: read-out: Percent Activity (LasR reporter)
# T1 construct: expressed in transfected cells; host or cells: E. coli TOP10 carrying pBAD-A 6xHIS-lasR and pCS26 plasB-luxCDABE
# Description: (§1) A two plasmid E. coli reporter system was constructed, in which LasR or RhlR was expressed under an arabinose inducible promoter (e.g., LasR or RhlR was cloned into a pBAD-A vector and expressed upon addition of arabinose) in the presence of a LasR-dependent or RhlR-dependent promoter fused to luciferase (e.g., cloned into a pCS26 vector). Upon the addition of arabinose and in the presence of AI, LasR or RhlR were expressed, formed a complex with the cognate AI, underwent dimerization, and activated transcription of the reporter construct. All potential inhibitors were tested at 100 μM. The percent activity was reported relative to wild-type (100%).
# (§2) A sample experimental protocol for the RhlR reporter (see, e.g., Table 5A2) or for the LasR reporter (see, e.g., Table 5A1).
# (§3) A clean plate was filled with water, 70% ethanol, LB, and primed with cultured cells to ensure that initial dispensing led to the appropriate volume of cells being added to the wells. 20 μL of this solution was dispensed into appropriate wells in a 384-well plate that contained small molecule antagonists. 20 μL of this solution was dispensed into wells intended for a positive control that contain only DMSO. To the culture that was saved for negative control, arabinose was added to 0.1%. An equal volume of DMSO was added to the culture, relative to the amount of AI added to the other culture. 20 μL of culture was dispensed into wells intended for a negative control that contained only DMSO and no small molecule QS inhibitors. Plates were incubated at 30° C. in the plate shaker. Plates were read using a 384 LUM/OD 600 setting on the plate reader after 4 hours of induction.
# For data analysis, the average and standard deviation for each of the control groups were determined. In a screen, for each data point, the number of standard deviations from the mean was determined to determine if the inhibitor was a “hit”. In a dose response curve, for each data point, the percent inhibition was determined: 1−(X/M), where X=single data point and M=is the mean of the AI only control group. The dose response curve was then plotted as a function of % inhibition (y) v. [inhibitor] on a log scale (x).
# RhlR = molecular target: T2, RhlR (Pseudomonas aeruginosa, UniProt P54292); test: Two plasmid E. coli RhlR reporter (luciferase); type: cell-based, P. aeruginosa; settings: for Percent Activity (RhlR reporter): inhibitor at 100 μM, relative to wild-type (100%); for remaining activity at 100 µM: read-out: Percent Activity (RhlR reporter)
# T2 construct: expressed in transfected cells; host or cells: E. coli TOP10 carrying pBAD-A 6xHIS-rhlR and pCS26 prhlA-luxCDABE
# Description: as §1, §2
# For the RhlR reporter, strains were re-streaked on LB+appropriate antibiotic before each experiment and grown overnight at 37° C. Three colonies were picked and a 3 mL overnight culture in LB+appropriate antibiotic was started. The culture was grown overnight at 37° C. The overnight culture was back-diluted 1:1000 into fresh LB+appropriate antibiotic in an appropriate volume, depending on the number of plates being screened. Each well in a 384 well plate received about 20 μL of culture. An additional 25 mL of culture was reserved for priming the plate filler. The culture was grown at 37° C. until OD600˜0.5, which took about 4 hrs. A 384-well plate was prepared. Stock concentrations of molecules (e.g., small molecule inhibitors) were 10 mM.
# For a 10-point dose response for the RhlR reporter, a 1:3 dilution of molecule:DMSO (333 μL of stock molecule, 667 μL of DMSO using a 1 mL pipetteman) was used for accurate dispensing by the robot dispenser. Upon a prompt by the software, the appropriate concentration of each molecule was added. Each well was normalized with a DMSO standard to bring the total % volume of DMSO up to 1% using the robot. Plates were set aside with dispensed drugs until the cells were ready. Once the cells reached an OD600 of 0.5, an appropriate amount of cell culture was dispensed for screening into an Erlenmeyer flask. (Extra culture was saved for a negative control.) Arabinose was added to 0.1% final concentration (1:1000 dilution from stock solution), and AI was added to 10 μM (ED75) from a 10 mM stock. The components of the flask were mixed together by swirling. As mentioned previously, other concentrations of AIs may be suitable, e.g., the concentrations may be in the range of 2 uM to 100 uM, from 10 uM to 100 uM or from 2 uM to 10 uM. In some embodiments, 2 nM of 3-O—C12-HSL (for LasR) and 10 uM of C4-HSL (for RhlR) were used.
# as §3
# For data analysis, the average and standard deviation for each of the control groups were determined. In a screen, for each data point, the number of standard deviations from the mean was determined to determine if the inhibitor was a “hit”. In a dose response curve, for each data point, the percent inhibition was determined: 1−(X/M), where X=single data point and M=is the mean of the AI only control group. […]
# [2] = system: Wild-type P. aeruginosa pyocyanin production; test: Pyocyanin virulence factor production; type: cell-based; settings: 100 μM overnight, back diluted, grown 18 hrs with inhibitor
# Method: FIG. 6. QS inhibitors reduce the level of virulence factor production in P. aeruginosa. The ability of the small molecule inhibitors to reduce virulence factor production by monitoring pyocyanin production was assessed.
# The ability of the small molecule QS inhibitors to reduce virulence factor production by monitoring production of pyocyanin as a representative virulence factor was assessed. Wild-type P. aeruginosa was incubated with the indicated molecules at 100 μM overnight, back diluted, and grown for 18 hrs in the presence of QS inhibitor.
# By varying the concentration of QS inhibitors, dose dependence curves were generated.
# LasR [3] = molecular target: T1, LasR; test: 10-point autoinducer dose response on LasR reporter with QS inhibitor (competition); type: cell-based, P. aeruginosa; settings: inhibitor at 100 μM; increasing concentrations of AI
# Method: FIG. 4. QS inhibitors bind non-competitively to LasR. A 10-point dose response curve with increasing concentrations of autoinducer 3-O—C12-HSL (AI) was generated for a variety of QS small molecule inhibitors. In this figure, curve C12 (filled circle) corresponds to the absence of inhibitor. […] Instead, the inhibitors bind elsewhere on LasR to prevent LasR-dependent transcription.
# Using known molecular biology techniques, assays were performed to determine whether binding of the small molecule QS inhibitors and the AIs occurred by a competitive or by another inhibitory mechanism (see, e.g., FIG. 4).
# Thus, a 10-point dose response curve with concentrations of AI ranging from 10 pM to 5 nM was generated for a variety of QS small molecule inhibitors. Curve C12 (dotted filled line) corresponds to the absence of inhibitor. […] Instead, the inhibitors bind elsewhere on LasR to prevent LasR-dependent transcription.
# LasR and RhlR = test: Receptor specific reporter assays for LasR and RhlR activity (stated in words); type: cell-based, P. aeruginosa
# Description: wherein R may be H or OH, and two or more of the R substituents of a given compound are OH; R′ is H or OH; and R″ is H or OH. […] A variety of compounds were obtained and tested for activity (e.g., inhibition of receptor specific reporter assays for LasR and RhlR activity).
# as §1
# T1 sequence (P25084 whole entry): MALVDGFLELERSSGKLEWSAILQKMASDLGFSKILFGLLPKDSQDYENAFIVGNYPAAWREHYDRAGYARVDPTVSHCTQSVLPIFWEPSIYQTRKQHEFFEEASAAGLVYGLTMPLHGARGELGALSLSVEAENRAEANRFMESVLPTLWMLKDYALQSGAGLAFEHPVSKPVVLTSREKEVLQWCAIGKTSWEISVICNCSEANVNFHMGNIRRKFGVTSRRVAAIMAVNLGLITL
# T2 sequence (P54292 whole entry): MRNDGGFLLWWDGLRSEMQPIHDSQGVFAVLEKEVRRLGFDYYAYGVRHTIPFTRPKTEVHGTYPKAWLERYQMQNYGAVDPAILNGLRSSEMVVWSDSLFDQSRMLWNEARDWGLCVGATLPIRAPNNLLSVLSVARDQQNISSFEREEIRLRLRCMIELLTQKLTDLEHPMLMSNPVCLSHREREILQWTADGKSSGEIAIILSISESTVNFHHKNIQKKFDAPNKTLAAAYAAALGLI
SMILES,Percent Activity (LasR reporter) (LasR [1]),Percent Activity (RhlR reporter) (RhlR),pyocyanin production [2],competition with autoinducer 3-O—C12-HSL for LasR (LasR [3]),remaining activity at 100 µM (LasR [1]) [%],activity (inhibition of receptor specific reporter assays for LasR and RhlR activity) (LasR and RhlR),remaining activity at 100 µM (RhlR) [%]
O=c1cc(-c2ccccc2)oc2cccc(O)c12 [Molecule 44],Inactive,Inactive,,,,,
"O=C(CCc1ccc(O)cc1)c1c(O)cc(O)cc1O [Molecule 1, Phloretin]",,,inhibit pyocyanin to varying degrees,did not compete,24.1,inhibit both LasR and RhlR,68.4
"O=c1cc(-c2ccccc2)oc2cc(O)cc(O)c12 [Molecule 3, Chrysin]",,,inhibit pyocyanin to varying degrees,did not compete,53.1,inhibit both LasR and RhlR,39.2
O=c1cc(-c2ccccc2)oc2c(O)c(O)ccc12 [Molecule 54],,,,,60.3,,54.5
"O=C1CC(c2ccc(O)cc2)Oc2cc(O)cc(O)c21 (stereo not shown) [Molecule 4, Narigenin]",,,inhibit pyocyanin to varying degrees,,,active,
COc1cc(OC)c2c(=O)cc(-c3ccccc3)oc2c1 [Molecule 49],Inactive,Inactive,,,,,
O=c1cc(-c2ccccc2)oc2cc(O)ccc12 [Molecule 45],Inactive,Inactive,,,,,
O=c1c(O)c(-c2ccccc2)oc2cc(O)cc(O)c12 [Molecule 55],Inactive,Inactive,,,,,
O=c1cc(-c2ccccc2)oc2ccc(O)cc12 [Molecule 50],Inactive,Inactive,,,,,
COc1cc(OC)c2c(=O)cc(-c3ccc(O)cc3)oc2c1 [Molecule 52],Inactive,Inactive,,,,,
O=c1cc(-c2ccccc2)oc2ccc(O)c(O)c12 [Molecule 53],,,,,16.7,,31.8
O=c1cc(-c2ccc(O)cc2)oc2cc(O)cc(O)c12 [Molecule 43],,,,,82.4,,84.5
"O=c1c(O)c(-c2ccc(O)c(O)c2)oc2cc(O)cc(O)c12 [Molecule 48, Quercetin]",,,inhibit pyocyanin to varying degrees,did not compete,44.4,inhibit both LasR and RhlR,40.2
O=C1CC(c2ccc(O)cc2)Oc2cc(O)cc(O)c21 (stereo not shown) [Molecule 4],,,,,63.3,,60.5
